# In publication PMC9249674, “A small-molecule Skp1 inhibitor elicits cell death by p53-dependent mechanism” (iScience, 2022):
# Key:
# Skp1^WT = target: T1, Skp1^WT (Homo sapiens, UniProt P63208); assay: Thermal shift assay (TSA); type: binding; details: protein 8 μM
# T1 construct: recombinantly purify intact (Skp1^WT) and truncate (ΔSkp1^1−140; lacking H8-helix) forms of Skp1; His6; made in house; host or cells: Escherichia coli BL21 (DE3)
# Description: (§1) TSA, also known as differential scanning fluorimetry (DSF), is used to identify the contribution of a ligand binding to an unfolding protein as a function of temperature. The detection involves increase in fluorescence of a fluorophore SYPRO Orange (Invitrogen) upon binding to the hydrophobic regions of the gradually unfolded protein. A ligand stabilizing a protein may increase the melting temperature (Tm). To detect the binding of Z0933M with Skp1, a gradient TSA was used, in which, protein samples were mixed with appropriate concentrations of ligand over the range of several folds. The protein (Skp1^WT or ΔSkp1^1−140) was kept constant at 8 μM, and the compound concentration was varied from 50 μM to 600 μM. For comparison with 6-OAP, a single concentration of 400 μM was tested with both Skp1^WT and ΔSkp1^1−140. All reactions were set up in final volume of 10 μL in 96-well plate with 1x SYPRO Orange (Invitrogen) and incubated with compounds on ice for 30 min. According to the experimental protocol, samples were heated at 0.5°C per minute, ranging from 30 to 90°C, and the fluorescence intensity was measured at the interval of 0.5°C. Appropriate buffer blank and protein-only controls were kept, and the shift in Tm was measured as ΔTm = Tm (ligand-protein) ‒ (protein-only). The resultant ΔTm values were plotted by using GraphPad Prism® v6.0 (San Diego, CA) and ORIGIN Lab softwares.
# ΔSkp1^1−140 = target: T2, ΔSkp1^1−140 (Homo sapiens, UniProt P63208); assay: Thermal shift assay (TSA); type: binding; details: protein 8 μM
# T2 construct: pETDuet-Skp1(1-140); His6; made in house; host or cells: Escherichia coli BL21 (DE3)
# T2 sequence (P63208 1-140, stated change not applied): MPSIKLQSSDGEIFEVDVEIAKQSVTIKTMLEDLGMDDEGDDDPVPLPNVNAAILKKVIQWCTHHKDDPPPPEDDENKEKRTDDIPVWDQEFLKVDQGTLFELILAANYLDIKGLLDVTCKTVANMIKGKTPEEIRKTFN
# Description: as §1
# [1] = tested on: panel of cell lines derived from hematologic and solid tumors; assay: Cell viability, panel of cell lines; type: cell-based; details: all the lines tested with complete cell killing; read-out: EC50 values across the panel
# Description: For cell viability, cells were seeded in 384 opaque-walled plates with clear bottoms at 300–500 cells per well (optimum density for growth) in a total volume of 20 μL of media. The media was according to culture conditions of each individual cell line (mentioned above). After 12 hrs, compounds were added in a total volume of 5 μL of media (two-fold diluted) to each well with final concentrations from 5 nM to 30 μM. The measurements were conducted 48 hrs after seeding of the cells. Then, 25 μL of Cell-Titer GLO reagent (Promega) was added, and luminescence was measured on an EnSpire multimode plate reader (PerkinElmer), according to the manufacturer’s instructions. The estimated in vitro half-maximal inhibitory concentration (EC50) values were calculated using GraphPad Prism® v6.0 (San Diego, CA) software. The cell viability for A549 cells was also performed for 72- and 96-hrs by using the same experimental conditions as described above.
# [2] = target: T3, Skp1-ΔSkp2^F−box-peptide interaction (Homo sapiens, UniProt P63208); assay: FP-based in vitro competition assay; type: binding; details: for Ki: calculated from IC50 with Ki calculator
# T3 construct: recombinantly purify intact (Skp1^WT) and truncate (ΔSkp1^1−140; lacking H8-helix) forms of Skp1; His6; made in house; host or cells: Escherichia coli BL21 (DE3)
# T3 sequence (P63208 whole entry, stated change not applied, the tested form may be a part): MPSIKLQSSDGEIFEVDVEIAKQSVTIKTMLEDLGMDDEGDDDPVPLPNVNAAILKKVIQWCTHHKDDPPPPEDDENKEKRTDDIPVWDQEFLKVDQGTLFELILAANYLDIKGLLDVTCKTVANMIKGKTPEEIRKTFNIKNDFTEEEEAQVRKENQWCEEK
# Description: FP measurements were performed using an EnVision multilabel Reader (Perkin Elmer). […] Lyophilized F-box-FAM peptide was initially dissolved in a Tris buffer (20 mM Tris-HCl pH 9.0, 150 mM NaCl, 2 mM DTT), and then a stock solution of 100 μM was prepared by subsequent dilutions in a FP buffer (20 mM Tris-HCl pH 8.0, 150 mM NaCl, 2 mM DTT, 5% (v/v) glycerol, 0.001% (v/v) Triton X-100). Specific controls groups included free F-box-FAM (tracer), bound F-box-FAM in the presence of protein (Skp1^WT or ΔSkp1^1−140), and FP buffer for every measurement, allowing accurate estimation of specific polarization.
# The selected subset of compounds were initially assayed at final concentration of 200 μM. The compounds were incubated at room temperature with Skp1^WT for 1 hr, followed by the addition of the tracer. […] After incubation for another 2 hrs, FP signals was measured on an EnVision multilabel Reader. The FP response was measured in quadruplicates with controls including free F-box-FAM (tracer), bound Skp1^WT-F-box-FAM, and FP buffer. The resultant FP values were plotted as bar graphs using ORIGIN Lab software.
# For gradient FP assay, protein samples were mixed with an appropriate concentrations of ligand over the range of several folds. […] The IC50 value of the compound in the gradient-concentration assay was determined with nonlinear regression and fitting using the following equation in GraphPad Prism® v6.0 (San Diego, CA). Y = Bottom + (Top – Bottom)/(1 + 10^X−LogIC50). […] In short, the relationship between the IC50 of the inhibitor and the Ki of the inhibitor depends on the KD of the fluorescent ligand and the concentration of the receptor.
# T1 sequence (P63208 whole entry, the tested form may be a part): as the sequence (P63208 whole entry, stated change not applied, the tested form may be a part) above
compound,measurement,setting,value
Nc1ccc(-c2nc3ccccc3c3[nH]c4ccccc4c23)cc1 [Z0933M],ΔTm at 50 µM,Skp1^WT; 50 μM compound,0.3 °C
same,ΔTm at 100 µM,Skp1^WT; 100 μM compound,0.6 °C
same,ΔTm at 200 µM,Skp1^WT; 200 μM compound,2.4 °C
same,ΔTm at 400 µM,Skp1^WT; 400 μM compound,7.8 °C
same,ΔTm at 600 µM,Skp1^WT; 600 μM compound,10.5 °C
same,ΔTm at 50 µM,ΔSkp1^1−140; 50 μM compound,0.9 °C
same,ΔTm at 100 µM,ΔSkp1^1−140; 100 μM compound,0.6 °C
same,ΔTm at 200 µM,ΔSkp1^1−140; 200 μM compound,2.1 °C
same,ΔTm at 400 µM,ΔSkp1^1−140; 400 μM compound,10.8 °C
same,ΔTm at 600 µM,ΔSkp1^1−140; 600 μM compound,11.1 °C
same,EC50,[1],250 to 4000 nM
same,inhibition of Skp1-ΔSkp2^F−box-peptide interaction,"[2]; 200 μM compound, 25 μM Skp1^WT, 500 nM tracer",almost completely disrupted
same,Ki,[2],231 ± 18 nM
same,Ki,[2]; figure,~231 nM
same,IC50,"[2]; dose-response FP, Skp1^WT 25 μM, tracer 500 nM",~25000 nM
